This passage reports % of control, % activity and % of inhibition results from ChEMBL document CHEMBL5465560, “Selectivity Literature for EUbOPEN Chemogenomic Library” (2024).

Where only a bound is given, the exact number is not on record here.

In test [1] the target is Cyclin-dependent kinase 5/CDK5 activator 1 (Homo sapiens) (UniProt Q00535+Q15078). Kind of test: Selectivity interaction (Kinase panel (Z-LYTE Assay)) EUB0001632a CDK5. The class given is protein-complex assay. The conditions noted are these: at 10 µM.
Sequence of Cyclin-dependent kinase 5/CDK5 activator 1 (Homo sapiens) (Q00535 whole entry): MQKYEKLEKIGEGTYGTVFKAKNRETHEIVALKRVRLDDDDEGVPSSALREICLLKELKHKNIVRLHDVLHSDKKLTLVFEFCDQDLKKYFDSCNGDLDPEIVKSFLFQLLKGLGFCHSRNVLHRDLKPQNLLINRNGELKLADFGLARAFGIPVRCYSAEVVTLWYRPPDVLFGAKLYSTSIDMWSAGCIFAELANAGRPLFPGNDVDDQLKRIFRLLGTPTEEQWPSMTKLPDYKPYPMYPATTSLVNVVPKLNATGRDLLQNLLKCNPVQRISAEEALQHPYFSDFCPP
Sequence of Cyclin-dependent kinase 5/CDK5 activator 1 (Homo sapiens) (Q15078 99-307 partner limits assumed): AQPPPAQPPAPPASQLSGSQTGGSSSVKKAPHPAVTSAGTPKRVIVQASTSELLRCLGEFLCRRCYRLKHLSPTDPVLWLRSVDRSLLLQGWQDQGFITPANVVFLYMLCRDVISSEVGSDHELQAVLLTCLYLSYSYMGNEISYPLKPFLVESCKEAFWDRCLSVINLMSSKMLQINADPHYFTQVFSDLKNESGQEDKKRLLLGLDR
Test [2] concerns the target N-lysine methyltransferase SMYD2 (Homo sapiens) (UniProt Q9NRG4). Kind of test: Selectivity interaction (Methyltransferase screen (Scintillation proximity assays)) EUB0000255b SMYD2. (SPA uses beads or plates that emit light when radiolabelled molecules are held near them.)
In test [3] the target is Tyrosine-protein kinase JAK1 (Homo sapiens, UniProt P23458). Kind of test: Selectivity interaction (ActivX KiNativ screen (ex vivo kinase selectivity in human PBMCs)) EUB0001619a JAK1. To be noted: PBMC, at 1 µM. The format is cell-based.
Sequence of Tyrosine-protein kinase JAK1 (P23458 whole entry): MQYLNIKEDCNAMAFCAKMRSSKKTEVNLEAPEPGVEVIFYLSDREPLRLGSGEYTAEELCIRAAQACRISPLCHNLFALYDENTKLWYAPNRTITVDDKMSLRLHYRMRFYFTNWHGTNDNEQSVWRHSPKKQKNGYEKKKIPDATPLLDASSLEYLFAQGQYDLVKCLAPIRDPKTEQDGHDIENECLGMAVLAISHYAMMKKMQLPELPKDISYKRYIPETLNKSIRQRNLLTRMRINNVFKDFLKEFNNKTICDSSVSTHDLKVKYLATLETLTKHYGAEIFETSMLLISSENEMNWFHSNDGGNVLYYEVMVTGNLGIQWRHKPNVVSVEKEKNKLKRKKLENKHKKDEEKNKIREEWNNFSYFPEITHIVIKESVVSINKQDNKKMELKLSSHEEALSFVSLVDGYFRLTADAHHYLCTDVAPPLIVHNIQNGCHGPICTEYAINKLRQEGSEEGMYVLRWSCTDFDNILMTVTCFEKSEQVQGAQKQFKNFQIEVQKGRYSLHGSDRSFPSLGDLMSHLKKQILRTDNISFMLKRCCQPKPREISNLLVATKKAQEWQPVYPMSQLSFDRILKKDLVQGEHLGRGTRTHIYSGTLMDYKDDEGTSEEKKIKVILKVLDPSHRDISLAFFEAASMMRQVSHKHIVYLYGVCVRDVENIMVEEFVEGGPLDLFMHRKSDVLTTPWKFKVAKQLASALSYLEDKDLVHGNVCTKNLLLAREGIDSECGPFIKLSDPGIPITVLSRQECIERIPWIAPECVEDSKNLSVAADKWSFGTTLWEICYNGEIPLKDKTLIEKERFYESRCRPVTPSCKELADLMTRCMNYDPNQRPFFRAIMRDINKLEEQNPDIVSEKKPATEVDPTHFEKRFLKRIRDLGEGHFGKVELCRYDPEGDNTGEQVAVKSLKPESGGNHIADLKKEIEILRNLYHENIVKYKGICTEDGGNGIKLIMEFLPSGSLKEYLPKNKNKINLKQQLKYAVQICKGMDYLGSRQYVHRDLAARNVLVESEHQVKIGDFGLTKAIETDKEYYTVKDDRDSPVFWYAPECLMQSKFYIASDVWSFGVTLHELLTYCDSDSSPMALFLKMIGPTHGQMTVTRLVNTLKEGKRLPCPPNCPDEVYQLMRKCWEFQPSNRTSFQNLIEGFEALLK
For test [4], the target named is T1, Dual specificity mitogen-activated protein kinase kinase 1 (Homo sapiens, UniProt Q02750). Kind of test: Selectivity interaction (ActivX KiNativ screen (ex vivo kinase selectivity in human PBMCs)) EUB0001619a MAP2K1. The format is cell-based. The conditions noted are these: PBMC, at 1 µM.
T1 sequence (Q02750 whole entry): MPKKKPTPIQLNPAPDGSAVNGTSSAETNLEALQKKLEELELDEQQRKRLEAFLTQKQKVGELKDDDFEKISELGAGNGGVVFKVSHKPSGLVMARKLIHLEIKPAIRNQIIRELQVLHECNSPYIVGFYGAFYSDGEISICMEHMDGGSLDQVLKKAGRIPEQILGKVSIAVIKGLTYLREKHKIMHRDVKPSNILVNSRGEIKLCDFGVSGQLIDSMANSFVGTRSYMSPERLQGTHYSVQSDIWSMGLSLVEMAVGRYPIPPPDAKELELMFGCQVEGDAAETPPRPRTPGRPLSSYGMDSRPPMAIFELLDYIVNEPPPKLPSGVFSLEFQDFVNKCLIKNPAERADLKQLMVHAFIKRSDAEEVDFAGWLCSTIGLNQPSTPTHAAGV
For test [5], the target named is Melanocortin receptor 4 (Homo sapiens) (UniProt P32245). Kind of test: Selectivity interaction (Eurofins CEREP Diversity Profile (receptors and ion channels)) EUB0000279b MC4R. To be noted: at 10 µM.
Sequence of Melanocortin receptor 4 (Homo sapiens) (P32245 whole entry): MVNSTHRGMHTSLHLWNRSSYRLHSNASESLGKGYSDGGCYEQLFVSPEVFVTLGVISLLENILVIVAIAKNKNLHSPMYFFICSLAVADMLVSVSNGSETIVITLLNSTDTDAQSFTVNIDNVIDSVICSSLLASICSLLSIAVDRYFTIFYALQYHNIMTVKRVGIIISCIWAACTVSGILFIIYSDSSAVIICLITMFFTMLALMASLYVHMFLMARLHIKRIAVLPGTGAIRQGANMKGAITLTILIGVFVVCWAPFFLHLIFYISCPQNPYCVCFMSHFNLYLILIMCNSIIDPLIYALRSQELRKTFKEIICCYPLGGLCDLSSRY
For test [6], the target named is Ephrin type-A receptor 2 (Homo sapiens) (UniProt P29317). Kind of test: Selectivity interaction (KinomeScan (DiscoverX)) EUB0000666a EPHA2. To be noted: at 10 µM.
Test [7] addresses Serine/threonine-protein kinase Chk2 (Homo sapiens) (UniProt O96017). Kind of test: Selectivity interaction (KinomeScan (DiscoverX)) EUB0000607a CHEK2. To be noted: at 10 µM.
Another test has as its target Misshapen-like kinase 1 (Homo sapiens, UniProt Q8N4C8). Kind of test: Selectivity interaction (KinomeScan (DiscoverX)) EUB0000607a MINK1. To be noted: at 10 µM.
Test [8] addresses Angiopoietin-1 receptor (Homo sapiens) (UniProt Q02763). Kind of test: Selectivity interaction (KinomeScan (DiscoverX)) EUB0000607a TEK. The conditions noted are these: at 10 µM.
Test [9] concerns the target T1, Dual specificity mitogen-activated protein kinase kinase 1. Kind of test: Selectivity interaction (ProQinase) EUB0000171b MAP2K1.
Test [10] has as its target T2, Phosphatidylinositol 3-kinase C2 domain-containing subunit gamma (Homo sapiens) (UniProt O75747).
T2 sequence (whole entry): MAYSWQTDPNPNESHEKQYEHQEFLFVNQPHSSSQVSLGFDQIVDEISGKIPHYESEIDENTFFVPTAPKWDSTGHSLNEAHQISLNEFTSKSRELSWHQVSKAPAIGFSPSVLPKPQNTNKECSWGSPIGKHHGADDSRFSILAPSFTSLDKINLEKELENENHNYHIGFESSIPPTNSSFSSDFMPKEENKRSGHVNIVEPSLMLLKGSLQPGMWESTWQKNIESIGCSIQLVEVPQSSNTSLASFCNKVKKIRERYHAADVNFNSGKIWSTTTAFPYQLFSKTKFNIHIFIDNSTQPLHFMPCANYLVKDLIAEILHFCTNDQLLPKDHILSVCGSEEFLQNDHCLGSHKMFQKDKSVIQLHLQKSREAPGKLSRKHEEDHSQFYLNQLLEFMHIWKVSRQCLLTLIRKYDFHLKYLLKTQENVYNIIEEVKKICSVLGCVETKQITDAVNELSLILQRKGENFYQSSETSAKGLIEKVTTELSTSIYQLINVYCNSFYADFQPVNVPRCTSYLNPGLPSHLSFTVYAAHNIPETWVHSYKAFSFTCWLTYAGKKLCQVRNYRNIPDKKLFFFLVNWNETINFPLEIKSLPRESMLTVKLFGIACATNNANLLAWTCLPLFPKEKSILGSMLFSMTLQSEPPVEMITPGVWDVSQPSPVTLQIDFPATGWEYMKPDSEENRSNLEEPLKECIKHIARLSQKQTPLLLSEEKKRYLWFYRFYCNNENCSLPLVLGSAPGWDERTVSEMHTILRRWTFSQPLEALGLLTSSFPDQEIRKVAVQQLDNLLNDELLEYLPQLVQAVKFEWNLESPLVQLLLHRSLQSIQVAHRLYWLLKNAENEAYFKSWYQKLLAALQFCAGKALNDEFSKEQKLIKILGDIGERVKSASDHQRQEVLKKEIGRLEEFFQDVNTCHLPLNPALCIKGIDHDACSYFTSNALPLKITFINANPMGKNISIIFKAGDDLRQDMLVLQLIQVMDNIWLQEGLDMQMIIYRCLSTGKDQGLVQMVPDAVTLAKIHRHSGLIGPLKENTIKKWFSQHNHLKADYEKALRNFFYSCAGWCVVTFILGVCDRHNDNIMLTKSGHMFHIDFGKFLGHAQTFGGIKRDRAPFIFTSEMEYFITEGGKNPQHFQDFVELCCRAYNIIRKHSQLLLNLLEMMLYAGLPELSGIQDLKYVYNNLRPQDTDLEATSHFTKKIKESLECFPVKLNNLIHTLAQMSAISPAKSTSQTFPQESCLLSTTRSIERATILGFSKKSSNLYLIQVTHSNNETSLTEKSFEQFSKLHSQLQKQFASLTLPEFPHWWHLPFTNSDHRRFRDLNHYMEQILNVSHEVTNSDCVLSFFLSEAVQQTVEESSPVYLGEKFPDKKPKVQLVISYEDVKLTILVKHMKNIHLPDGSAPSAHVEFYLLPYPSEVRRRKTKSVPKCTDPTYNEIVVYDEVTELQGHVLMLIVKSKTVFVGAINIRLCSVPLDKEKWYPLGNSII
Kind of test: Selectivity interaction (ProQinase) EUB0000171b PIK3C2G.

The target in test [11] is Protein-tyrosine kinase 2-beta (Homo sapiens) (UniProt Q14289). Kind of test: Selectivity interaction (KinomeScan (DiscoverX)) EUB0001049a PTK2B. The conditions noted are these: at 1 µM.
In test [12] the target is Serine/threonine-protein kinase MRCK alpha (Homo sapiens) (UniProt Q5VT25). Kind of test: Selectivity interaction (Upstate Kinase Profiler service (Millipore)) EUB0000056c CDC42BPA. The conditions noted are these: at 1 µM.
In test [13] the target is Calcium/calmodulin-dependent protein kinase type 1 (Homo sapiens) (UniProt Q14012). Kind of test: Selectivity interaction (KinomeScan (DiscoverX)) EUB0000655a CAMK1. To be noted: at 10 µM.
For test [14], the target named is Cyclin-dependent kinase-like 1 (Homo sapiens) (UniProt Q00532). Kind of test: Selectivity interaction (KinomeScan (DiscoverX)) EUB0000655a CDKL1. To be noted: at 10 µM.
Test [15] has as its target Serine/threonine-protein kinase N1 (Homo sapiens, UniProt Q16512). Kind of test: Selectivity interaction (KinomeScan (DiscoverX)) EUB0000655a PKN1. The conditions noted are these: at 10 µM.
For test [16], the target named is Calcium/calmodulin-dependent protein kinase type 1G (Homo sapiens) (UniProt Q96NX5). Kind of test: Selectivity interaction (KinomeScan (DiscoverX)) EUB0000618a CAMK1G. To be noted: at 10 µM.
Sequence of Calcium/calmodulin-dependent protein kinase type 1G (Homo sapiens) (Q96NX5 whole entry): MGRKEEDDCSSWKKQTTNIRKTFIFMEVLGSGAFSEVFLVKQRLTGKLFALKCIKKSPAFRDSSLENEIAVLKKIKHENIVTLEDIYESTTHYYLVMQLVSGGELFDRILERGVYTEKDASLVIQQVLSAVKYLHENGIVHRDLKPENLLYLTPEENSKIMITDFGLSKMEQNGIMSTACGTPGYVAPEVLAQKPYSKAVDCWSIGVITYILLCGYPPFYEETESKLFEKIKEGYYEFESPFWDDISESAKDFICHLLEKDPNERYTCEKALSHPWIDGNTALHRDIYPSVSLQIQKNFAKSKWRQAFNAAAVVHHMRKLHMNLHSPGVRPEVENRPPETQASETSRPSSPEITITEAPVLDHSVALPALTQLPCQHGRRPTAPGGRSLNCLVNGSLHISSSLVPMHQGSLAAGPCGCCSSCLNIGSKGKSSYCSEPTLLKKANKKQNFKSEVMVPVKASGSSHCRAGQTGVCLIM
Test [17] deals with Serine/threonine-protein kinase pim-1 (Homo sapiens, UniProt P11309). Kind of test: Selectivity interaction (KinomeScan (DiscoverX)) EUB0001079a PIM1. The conditions noted are these: at 1 µM.
Sequence of Serine/threonine-protein kinase pim-1 (P11309 whole entry, looked up): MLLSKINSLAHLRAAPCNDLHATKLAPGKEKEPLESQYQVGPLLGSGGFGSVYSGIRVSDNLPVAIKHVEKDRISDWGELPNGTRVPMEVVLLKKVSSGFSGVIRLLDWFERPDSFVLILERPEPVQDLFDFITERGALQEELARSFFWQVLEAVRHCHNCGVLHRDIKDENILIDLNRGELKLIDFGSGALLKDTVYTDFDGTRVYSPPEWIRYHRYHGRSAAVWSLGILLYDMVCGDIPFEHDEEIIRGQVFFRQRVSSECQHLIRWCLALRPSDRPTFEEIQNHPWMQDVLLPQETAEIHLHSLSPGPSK

Sequence of N-lysine methyltransferase SMYD2 (Homo sapiens) (Q9NRG4 whole entry): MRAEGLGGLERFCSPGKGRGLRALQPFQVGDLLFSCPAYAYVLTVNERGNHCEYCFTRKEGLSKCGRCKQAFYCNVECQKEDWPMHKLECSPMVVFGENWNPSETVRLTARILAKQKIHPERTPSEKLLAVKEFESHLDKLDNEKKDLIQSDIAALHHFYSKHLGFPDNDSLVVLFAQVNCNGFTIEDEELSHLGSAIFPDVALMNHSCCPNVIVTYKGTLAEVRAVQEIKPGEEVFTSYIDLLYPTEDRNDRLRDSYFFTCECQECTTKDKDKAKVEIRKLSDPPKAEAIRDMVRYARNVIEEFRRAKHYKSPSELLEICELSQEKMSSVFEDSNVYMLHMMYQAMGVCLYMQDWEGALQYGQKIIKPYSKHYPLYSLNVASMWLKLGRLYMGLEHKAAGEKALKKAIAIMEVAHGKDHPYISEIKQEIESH
Sequence of Misshapen-like kinase 1 (Q8N4C8 whole entry, looked up): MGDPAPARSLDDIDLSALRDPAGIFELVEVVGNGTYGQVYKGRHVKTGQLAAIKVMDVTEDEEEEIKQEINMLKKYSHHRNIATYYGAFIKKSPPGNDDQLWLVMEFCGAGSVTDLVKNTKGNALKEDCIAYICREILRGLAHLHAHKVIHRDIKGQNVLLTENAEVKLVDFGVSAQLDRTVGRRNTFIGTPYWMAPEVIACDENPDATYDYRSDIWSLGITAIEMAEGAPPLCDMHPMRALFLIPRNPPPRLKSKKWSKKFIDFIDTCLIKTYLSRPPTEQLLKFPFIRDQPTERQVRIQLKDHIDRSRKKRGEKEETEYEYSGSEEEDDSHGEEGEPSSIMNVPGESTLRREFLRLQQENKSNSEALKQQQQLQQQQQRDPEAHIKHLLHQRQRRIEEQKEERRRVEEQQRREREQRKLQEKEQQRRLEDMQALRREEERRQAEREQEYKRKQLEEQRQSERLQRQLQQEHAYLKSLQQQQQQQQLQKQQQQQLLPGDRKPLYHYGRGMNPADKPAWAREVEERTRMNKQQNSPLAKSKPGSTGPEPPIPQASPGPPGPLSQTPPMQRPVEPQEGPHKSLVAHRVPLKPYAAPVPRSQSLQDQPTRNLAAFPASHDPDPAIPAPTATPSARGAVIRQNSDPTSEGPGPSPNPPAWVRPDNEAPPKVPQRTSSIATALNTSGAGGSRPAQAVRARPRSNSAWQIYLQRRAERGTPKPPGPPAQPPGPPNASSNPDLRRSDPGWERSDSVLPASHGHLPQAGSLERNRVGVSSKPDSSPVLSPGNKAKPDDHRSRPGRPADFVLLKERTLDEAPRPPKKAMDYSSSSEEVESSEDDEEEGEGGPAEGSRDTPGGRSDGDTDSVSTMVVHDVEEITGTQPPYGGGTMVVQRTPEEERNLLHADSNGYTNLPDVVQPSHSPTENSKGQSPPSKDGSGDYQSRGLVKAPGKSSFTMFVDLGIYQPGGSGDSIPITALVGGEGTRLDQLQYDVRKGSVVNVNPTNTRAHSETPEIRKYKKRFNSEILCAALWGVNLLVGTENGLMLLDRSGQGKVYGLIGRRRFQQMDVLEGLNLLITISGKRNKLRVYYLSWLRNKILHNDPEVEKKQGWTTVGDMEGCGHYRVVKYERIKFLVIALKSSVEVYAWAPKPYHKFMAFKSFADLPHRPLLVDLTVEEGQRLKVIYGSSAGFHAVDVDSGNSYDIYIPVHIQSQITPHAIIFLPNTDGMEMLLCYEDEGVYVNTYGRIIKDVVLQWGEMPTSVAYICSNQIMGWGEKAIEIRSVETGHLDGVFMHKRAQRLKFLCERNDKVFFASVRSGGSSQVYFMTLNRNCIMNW

Consider `Cn1cc(-n2cnc3c(NCc4nc5cc(Cl)c(Cl)cc5[nH]4)nc(N4CCOCC4)nc32)cn1`, for which, in [1], the % of control is 5.78%.
`COCCN1CCC(c2cc(CN(C)C(=O)c3cccc(Oc4ccccc4)c3)ccn2)CC1`: the % activity was greater than 95% in [2] (at 1 µM) and greater than 90% in [2] (at 10 µM).
Turning to `N#Cc1cccc(-c2c[nH]c3ncnc(N4CCOCC4)c23)c1`, the results for the % of inhibition in [3] and in test [4] were -1% and 14%, respectively.
In test [5], `CC(=O)c1cc(-c2ccccc2OCC2CC2)c2ncccn12` came in with a % of control of 90%.
Compound `O=C(NOC[C@H](O)CO)c1ccc(F)c(F)c1Nc1ccc(I)cc1F` displayed a % of control in test [6] of 88%.
For `CNC(=O)Nc1ccc(-c2nc(N3CC4CCC(C3)O4)c3cnn(C4CCC5(CC4)OCCO5)c3n2)cc1`, the values for the % of control (in test [7]; on Misshapen-like kinase 1; in test [8]) were 84%, 100% and 100%, respectively.
On to `C=CC(=O)Nc1cccc(C(=O)Nc2ccc(Nc3cc(-c4[nH]c(SC)nc4C)ccn3)cc2)c1`, for which the % of control in test [9] (at 1 µM) was 96%; in [9] (at 5 µM), 113%; in [10] (at 1 µM), 129%; in test [10] (at 5 µM), 108%.
In [11], `COc1cc(Nc2nc(C)cc(-c3cnn4nc(OC)ccc34)n2)cc(C(F)(F)F)c1` registered a % of control of 99%.
In the case of `Cc1ccc(-c2ccc3c(ccc4sc5c(c43)NC[C@@H](C)NC5=O)n2)cn1`, in [12], the % of inhibition is -21%.
For the compound `CN(C)CCOc1ccc(-c2nc(-c3ccncc3)c(-c3ccc4c(c3)CC/C4=N\O)[nH]2)cc1`, the % of control in test [13] came out at 93%; in test [14], 100%; in test [15], 92%.
On to `O[C@H]1CC[C@H](Nc2ncc3nc(Nc4c(F)cc(F)cc4F)n([C@H]4CCOC4)c3n2)CC1`, for which the % of control in [16] stood at 100%.
`Nc1cnc(N2CCc3cc(S(=O)(=O)Nc4c(F)cc(Cl)cc4F)cc(N4CCCC4=O)c32)nc1` [TP-020n] yielded a % of control in [17] of 88%.
